Laboratory results: US10494378B2, “Fused ring pyrimidine compound, intermediate, and preparation method, composition and use thereof” (GUANGZHOU MAXINOVEL PHARMACEUTICALS CO., LTD., priority 2015, dated 2019)

How the values were obtained:
[1] = target: T1, FLT3 kinase (FLT3-WT) (Homo sapiens, UniProt P36888); assay: IC50 evaluation assay of FLT3 kinase inhibition (Caliper); type: biochemical; conditions: 28° C.; average of two tests; read-out: IC50 (nM) inhibiting FLT3-WT kinase
T1 construct: purchased Carna 08-154
T1 sequence (P36888 27-993): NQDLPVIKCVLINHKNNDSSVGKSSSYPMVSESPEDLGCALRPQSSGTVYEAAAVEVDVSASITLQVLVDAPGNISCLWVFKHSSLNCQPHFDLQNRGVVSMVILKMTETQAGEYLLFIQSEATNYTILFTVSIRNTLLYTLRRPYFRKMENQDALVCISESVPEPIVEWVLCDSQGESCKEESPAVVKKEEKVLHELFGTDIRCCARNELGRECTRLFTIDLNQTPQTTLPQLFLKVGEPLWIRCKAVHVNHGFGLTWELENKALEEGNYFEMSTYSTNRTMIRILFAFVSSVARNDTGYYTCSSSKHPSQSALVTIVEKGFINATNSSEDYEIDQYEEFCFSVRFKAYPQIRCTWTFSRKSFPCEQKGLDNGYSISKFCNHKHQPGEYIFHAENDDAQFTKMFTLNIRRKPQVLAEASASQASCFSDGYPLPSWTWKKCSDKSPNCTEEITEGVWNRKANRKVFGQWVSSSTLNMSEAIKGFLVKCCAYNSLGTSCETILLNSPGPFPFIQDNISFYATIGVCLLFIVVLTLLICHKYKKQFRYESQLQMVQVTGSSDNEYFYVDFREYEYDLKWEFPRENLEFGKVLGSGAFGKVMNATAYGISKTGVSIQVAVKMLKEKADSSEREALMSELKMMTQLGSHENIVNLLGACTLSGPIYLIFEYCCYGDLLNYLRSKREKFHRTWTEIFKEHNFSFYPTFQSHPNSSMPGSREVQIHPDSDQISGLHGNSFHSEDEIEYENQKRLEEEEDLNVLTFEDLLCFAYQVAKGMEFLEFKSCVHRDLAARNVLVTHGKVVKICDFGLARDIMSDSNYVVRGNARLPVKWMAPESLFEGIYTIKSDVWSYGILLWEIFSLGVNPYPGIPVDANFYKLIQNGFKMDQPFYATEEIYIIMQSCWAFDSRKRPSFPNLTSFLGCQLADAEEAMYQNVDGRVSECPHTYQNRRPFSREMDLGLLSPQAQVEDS
Procedure: (§1) 1. The compound was dissolved in 100% DMSO, diluted into solutions with appropriate concentration gradients with water according to experimental requirement, and added to a 96-well plate.
2. FLT3 kinase (Carna, Cat. No. 08-154, Lot. No. 07CBS-2350), FLT3-ITD kinase (Invitrogen, Cat. No. PV6191, Lot. No. 1753453) and FLT3-D835Y kinase (Invitrogen, Cat. No. PR7450A, Lot. No. 1629729C) were diluted to the optimum concentration with the following buffer solution: 50 mM HEPES, pH 7.5, 0.0015% Brij-35, 10 mM MgCl2, 2 mM DTT. Transfer to the 96-well plate and incubate with the compound at 28° C. for a period of time.
(§2) 3. The buffer solution (100 mM HEPES, pH 7.5, 0.0015% Brij-35, 0.2% Coating Reagent and […]) was added to terminate the reaction.
(§3) 4. The conversion rate was read with Caliper Reader. The inhibition rate was calculated as the average of two tests.

[2] = target: T2, YES kinase (Homo sapiens, UniProt P07947); assay: IC50 evaluation assay of Src family kinase inhibition: YES; type: biochemical; conditions: 28° C.; average of two tests; read-out: IC50 (nM) inhibiting Src family kinase YES
T2 construct: purchased Carna 08-175
Procedure: as §1
2. c-Src kinase (Carna, Cat. No. 08-173, Lot. No. 05CBS-1367), LYNαkinase (Carna, Cat. No. 08-171, Lot. No. 06CBS-3296D), FYN kinase (Carna, Cat. No. 08-068, Lot. No. 05CBS-1032), LCK kinase (Carna, Cat. No. 08-170, Lot. No. 07CBS-2482), HCK kinase (BPS, Cat. No. 40440, Lot. No. 1001), FGR kinase (Carna, Cat. No. 08-166, Lot. No. 05CBS-2781), YES kinase (Carna, Cat. No. 08-175, Lot. No. 06CBS-3247) were diluted to the optimum concentration with the following buffer solution: 50 mM HEPES, pH 7.5, 0.0015% Brij-35, 10 mM MgCl2, 2 mM DTT. Transfer to the 96-well plate and incubate with the compound at 28° C. for a period of time.
as §2, §3

T2 sequence (P07947 whole entry): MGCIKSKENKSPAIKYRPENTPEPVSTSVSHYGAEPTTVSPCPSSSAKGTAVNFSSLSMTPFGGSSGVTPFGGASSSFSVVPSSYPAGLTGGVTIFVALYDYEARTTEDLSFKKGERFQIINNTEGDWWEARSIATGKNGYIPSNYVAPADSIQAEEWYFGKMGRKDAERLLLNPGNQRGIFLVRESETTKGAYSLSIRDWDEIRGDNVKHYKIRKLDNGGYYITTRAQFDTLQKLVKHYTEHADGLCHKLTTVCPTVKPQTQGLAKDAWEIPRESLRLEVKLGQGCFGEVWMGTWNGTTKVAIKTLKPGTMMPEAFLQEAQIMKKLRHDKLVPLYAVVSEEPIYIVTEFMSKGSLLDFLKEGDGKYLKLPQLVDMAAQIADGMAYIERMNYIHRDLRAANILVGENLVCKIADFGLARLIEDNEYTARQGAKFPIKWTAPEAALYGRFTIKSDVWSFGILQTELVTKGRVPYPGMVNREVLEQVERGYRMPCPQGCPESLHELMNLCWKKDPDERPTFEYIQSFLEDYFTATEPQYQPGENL

For COc1cc(F)ccc1-c1c(C)sc2cnc(Nc3cnn(C4CCN(CCO)CC4)c3)nc12 [Compound 34, 2-[4-(4-{[7-(4-fluoro-2-methoxyphenyl)-6-methylthieno[3,2-d]pyrimidinyl-2-yl]amino}-1H-pyrazol-1-yl)-piperidinyl-1-yl]-1-ethanol], the IC50 [1] was < 5 nM and the IC50 [2] was 6.8 nM.
For COc1cc(F)ccc1-c1c(C)sc2cnc(Nc3cnn(C4CCNCC4)c3)nc12 [Compound 31, N-[7-(4-fluoro-2-methoxyphenyl)-6-methylthieno[3,2-d]pyrimidinyl-2-yl]-1-(piperidinyl-4-yl)-1H-pyrazol-4-amine], the IC50 [1] was 0.28 nM and the IC50 [2] was 5.8 nM.
